Data from patent publication US6864253B2, “Benzo[4,5]thieno[2,3-c]pyridine and Benzo[4,5]furo[2,3-c]pyridine Derivatives Useful as Inhibitors of Phosphodiesterase” (Orth-McNeil Pharmaceutical, Inc., priority 2000, dated 2005).

Each compound was assayed against PDEV (Oryctolagus cuniculus, UniProt G1SX67) (assay: Cyclic nucleotide phosphodiesterase (PDE) assay, inhibition of PDEV isolated from rabbit tissue). Conditions: 10 μM test compound; rabbit PDEV.
Assay type: biochemical
Description: Briefly, rabbit or human tissues were homogenized in an ice-cold buffer solution containing 20 mM HEPES (pH 7.2), 0.25M sucrose, 1 mM EDTA, and 1 mM phenylmethylsulphonyl fluoride (PMSF). The homogenates were centrifuged at 100,000 g for 60 minutes at 4° C. The supernatant was filtered through […] filter and loaded on a Pharmacia Mono Q anion exchange column (1 ml bed volume) that was equilibrated with 20 mM HEPES, 1 mM EDTA and 0.5 mM PMSF. […] The fractions comprising various PDE activities were pooled separately and used in later studies.
The assays were adapted to a 96-well format. The enzyme was assayed in 5 mM MgCl2, 15 mM Tris HCl (pH 7.4), 0.5 mg/ml bovine serum albumin, 1 μM cGMP or cAMP, 0.1 μCi [^3H]-cGMP or [^3H]-cAMP, and 2-10 μl of column elution. The total volume of the assay was 100 μl. The reaction mixture was incubated at 30° C. for 30 minutes. The reaction was stopped by boiling for 1 minute and then cooled down on ice. The resulting [^3H] 5′-mononucleotides were further converted to uncharged [^3H]-nucleosides by adding 25 μl 1 mg/ml snake venom (Ophiophagus hannah) and incubating at 30° C. for 10 minute. The reaction was stopped by the addition of 1 ml Bio-Rad AG1-X2 resin slurry (1:3). All the charged nucleotides were bound by the resin and only the uncharged [^3H]-nucleosides remained in the supernatant after centrifuging. An aliquot of 200 μl was taken and counted by liquid scintillation. PDE activity was expressed as pmol cyclic nucleotide hydrolyzed/min/ml of enzyme preparation.
Inhibitor studies were carried out in assay buffer with a final concentration of 10% DMSO.

`COc1ccc(C2c3[nH]c4ccccc4c3CCN2C(=O)c2c(-c3ccccc3)noc2C)cc1OC` (racemic) [Cmpd 110] and `COc1ccc(C2c3[nH]c4ccccc4c3CCN2C(=O)c2c(-c3ccccc3)noc2C)cc1` (racemic) [Cmpd 117] are the same in “% Inh @ 10 μM (rabbit)” value: 32% for the first, 32% for the second.

Compared with `O=C(c1ccc(-c2ccc(NCCCCO)cc2)o1)N1CCc2c([nH]c3ccccc23)C1c1ccc2c(c1)OCO2` (stereo not shown) [Cmpd 60], `O=C(c1ccc(-c2ccc([N+](=O)[O-])cc2)o1)N1CCc2c([nH]c3ccccc23)C1c1ccc2c(c1)OCO2` (stereo not shown) [Cmpd 50] is lower in “% Inh @ 10 μM (rabbit)” value: 89% for the first, 76% for the second.

Going from `CN(C)CCn1c2c(c3ccccc31)CCN(C(=O)c1ccc(-c3ccccc3[N+](=O)[O-])o1)C2c1ccc2c(c1)OCO2` (stereo not shown) [Cmpd 41] to `CN(C)CCn1c2c(c3ccccc31)CCN(C(=O)c1ccc(-c3ccc(Cl)cc3[N+](=O)[O-])o1)C2c1ccc2c(c1)OCO2` (stereo not shown) [Cmpd 40], the “% Inh @ 10 μM (rabbit)” value falls from 93% to 78%.

Going from `Cc1cc(C(=O)N2CCc3c([nH]c4ccccc34)C2c2ccc3c(c2)OCO3)nn1-c1ccccc1` (racemic) [Cmpd 106] to `CCCc1c(C(=O)N2CCc3c([nH]c4ccccc34)C2c2ccc3c(c2)OCO3)cnn1-c1ccccc1` (racemic) [Cmpd 122], the “% Inh @ 10 μM (rabbit)” value falls from 70% to 65%.

First: Cc1onc(-c2ccccc2)c1C(=O)N1CCc2c([nH]c3ccccc23)C1c1ccc2c(c1)OCO2 (racemic) [Cmpd 112]
Second: Cc1oc(-c2ccccc2)cc1C(=O)N1CCc2c([nH]c3ccccc23)C1c1ccc2c(c1)OCO2 (racemic) [Cmpd 104]
The “% Inh @ 10 μM (rabbit)” value of the first is lower: 33% for the first, 72% for the second.

Compared with `O=C(c1cnn(-c2ccccc2)c1C(F)(F)F)N1CCc2c([nH]c3ccccc23)C1c1ccc([N+](=O)[O-])cc1` (stereo not shown) [Cmpd 131], `COc1ccc(C2c3[nH]c4ccccc4c3CCN2C(=O)c2cnn(-c3ccccc3)c2C(F)(F)F)cc1` (stereo not shown) [Cmpd 130] is higher in “% Inh @ 10 μM (rabbit)” value: 12% for the first, 45% for the second.

Going from `COc1ccc(C2c3[nH]c4ccccc4c3CCN2C(=O)c2cnn(-c3ccccc3)c2C(F)(F)F)cc1OC` (racemic) [Cmpd 121] to `O=C(c1cnn(-c2ccccc2)c1C(F)(F)F)N1CCc2c([nH]c3ccccc23)C1c1ccc2c(c1)OCO2` (stereo not shown) [Cmpd 123], the “% Inh @ 10 μM (rabbit)” value rises from 10% to 56%.

First: O=C(c1ccc(-c2cccc(C(F)(F)F)c2)o1)N1CCc2c([nH]c3ccccc23)C1c1ccc([N+](=O)[O-])cc1 (stereo not shown) [Cmpd 84]
Second: O=C(c1ccc(-c2cccc([N+](=O)[O-])c2)o1)N1CCc2c([nH]c3ccccc23)C1c1ccc([N+](=O)[O-])cc1 (stereo not shown) [Cmpd 85]
The “% Inh @ 10 μM (rabbit)” value of the first is lower: 20% for the first, 26% for the second.

Going from `CC(C)(C)c1cc(C(=O)N2CCc3c([nH]c4ccccc34)C2c2ccc3c(c2)OCO3)n(Cc2ccccc2)n1` (stereo not shown) [Cmpd 136] to `COc1ccc(C2c3[nH]c4ccccc4c3CCN2C(=O)c2cc(C(C)(C)C)nn2Cc2ccccc2)cc1` (stereo not shown) [Cmpd 141], the “% Inh @ 10 μM (rabbit)” value falls from 18% to 11%.

Compared with `FC(F)(F)c1ccc(Cl)c(-c2ccc(CN3CCc4c([nH]c5ccccc45)C3c3ccc4c(c3)OCO4)o2)c1` (stereo not shown) [Cmpd 11], `FC(F)(F)c1cccc(-c2ccc(CN3CCc4c([nH]c5ccccc45)C3c3ccc4c(c3)OCO4)o2)c1` (stereo not shown) [Cmpd 12] is higher in “% Inh @ 10 μM (rabbit)” value: 53% for the first, 76% for the second.

First: O=C(c1ccc(-c2cccc(C(F)(F)F)c2)o1)N1CCc2c(n(C(=O)c3ccc(-c4cccc(C(F)(F)F)c4)o3)c3ccccc23)C1c1ccc2c(c1)OC(F)(F)O2 (stereo not shown) [Cmpd 20]
Second: O=C(c1ccc(-c2cccc(C(F)(F)F)c2)o1)N1CCc2c([nH]c3ccccc23)C1c1ccc2c(c1)OC(F)(F)O2 (stereo not shown) [Cmpd 22]
The “% Inh @ 10 μM (rabbit)” value of the first is lower: 4% for the first, 16% for the second.

Going from `CN(C)CCCCn1c2c(c3ccccc31)CCN(C(=O)c1ccc(-c3cccc(C(F)(F)F)c3)o1)C2c1ccc2c(c1)OCO2` (stereo not shown) [Cmpd 34] to `CN(C)CCn1c2c(c3ccccc31)CCN(C(=O)c1ccc(-c3cccc(C(F)(F)F)c3)o1)C2c1ccc2c(c1)OCO2` (stereo not shown) [Cmpd 35], the “% Inh @ 10 μM (rabbit)” value rises from 67% to 98%.

Going from `O=C(c1ccc([N+](=O)[O-])o1)N1CCc2c([nH]c3ccccc23)C1c1ccc2c(c1)OCO2` (stereo not shown) [Cmpd 64] to `CC(C)(C)c1ccc(C(=O)N2CCc3c([nH]c4ccccc34)C2c2ccc3c(c2)OCO3)o1` (stereo not shown) [Cmpd 65], the “% Inh @ 10 μM (rabbit)” value falls from 83% to 66%.

Compared with `Cc1cc(C)cc(C2c3[nH]c4ccccc4c3CCN2C(=O)c2c(-c3ccccc3)noc2C)c1` (racemic) [Cmpd 113], `O=C(c1cc(-c2ccccc2)c(C(F)(F)F)s1)N1CCc2c([nH]c3ccccc23)C1c1ccc2c(c1)OCO2` (stereo not shown) [Cmpd 90] is higher in “% Inh @ 10 μM (rabbit)” value: 29% for the first, 69% for the second.

Going from `CN(C)CCNC(=O)C1Cc2c([nH]c3ccccc23)C(c2ccc3c(c2)OCO3)N1C(=O)c1ccc(-c2cccc(C(F)(F)F)c2)o1` (stereo not shown) [Cmpd 69] to `COC(=O)C1Cc2c([nH]c3ccccc23)C(c2ccc3c(c2)OCO3)N1C(=O)c1ccc(-c2cccc([N+](=O)[O-])c2)o1` (stereo not shown) [Cmpd 73], the “% Inh @ 10 μM (rabbit)” value falls from 21% to 20%.

First: O=C(c1ccc(-c2cccc(C(F)(F)F)c2)o1)N1CCc2c(n(CCCCCl)c3ccccc23)C1c1ccc2c(c1)OCO2 (stereo not shown) [Cmpd 27]
Second: O=C(O)CCn1c2c(c3ccccc31)CCN(C(=O)c1ccc(-c3cccc(C(F)(F)F)c3)o1)C2c1ccc2c(c1)OCO2 (stereo not shown) [Cmpd 29]
The “% Inh @ 10 μM (rabbit)” value of the first is lower: 56% for the first, 79% for the second.

Compared with `O=C(c1cnn(-c2ccc([N+](=O)[O-])cc2)c1C(F)(F)F)N1CCc2c([nH]c3ccccc23)C1c1ccc2c(c1)OCO2` (stereo not shown) [Cmpd 125], `Cc1ccc(-c2ccc(C(=O)N3CCc4c([nH]c5ccccc45)C3c3ccc4c(c3)OCO4)o2)c([N+](=O)[O-])c1` (stereo not shown) [Cmpd 53] is higher in “% Inh @ 10 μM (rabbit)” value: 54% for the first, 85% for the second.

Compared with `O=C(c1ccc(Cl)nc1)N1CCc2c([nH]c3ccccc23)C1c1ccc2c(c1)OCO2` (racemic) [Cmpd 108], `CN(C)CCn1c2c(c3ccccc31)CCN(C(=O)c1cc3ccccc3s1)C2c1ccc2c(c1)OCO2` (stereo not shown) [Cmpd 17] is higher in “% Inh @ 10 μM (rabbit)” value: 48% for the first, 88% for the second.

Going from `COC(=O)c1ccc(C2c3[nH]c4ccccc4c3CCN2C(=O)c2cc(C(C)(C)C)nn2Cc2ccccc2)cc1` (stereo not shown) [Cmpd 140] to `O=C(c1ccc(-c2cccc(C(F)(F)F)c2)o1)N1CCc2c([nH]c3ccccc23)C1c1ccccc1` (stereo not shown) [Cmpd 88], the “% Inh @ 10 μM (rabbit)” value rises from 8% to 49%.

Compared with `O=C(O)Cn1c2c(c3ccccc31)CCN(C(=O)c1ccc(-c3cccc([N+](=O)[O-])c3)o1)C2c1ccc2c(c1)OCO2` (stereo not shown) [Cmpd 30], `COC(=O)Cn1c2c(c3ccccc31)CCN(C(=O)c1ccc(-c3cccc([N+](=O)[O-])c3)o1)C2c1ccc2c(c1)OCO2` (stereo not shown) [Cmpd 24] is lower in “% Inh @ 10 μM (rabbit)” value: 93% for the first, 40% for the second.

Compared with `CN(C)CCn1c2c(c3ccccc31)CCN(c1nc3ccccc3s1)C2c1ccc2c(c1)OCO2` (stereo not shown) [Cmpd 2], `COc1ccc(-c2cnc(N3CCc4c(n(CCN(C)C)c5ccccc45)C3c3ccc4c(c3)OCO4)nc2)cc1` (stereo not shown) [Cmpd 6] is higher in “% Inh @ 10 μM (rabbit)” value: 43% for the first, 95% for the second.

First: O=C(O)Cn1c2c(c3ccccc31)CCN(C(=O)c1ccc(-c3cccc(C(F)(F)F)c3)o1)C2c1ccc2c(c1)OCO2 (stereo not shown) [Cmpd 31]
Second: COC(=O)CCn1c2c(c3ccccc31)CCN(C(=O)c1ccc(-c3cccc(C(F)(F)F)c3)o1)C2c1ccc2c(c1)OCO2 (stereo not shown) [Cmpd 23]
The “% Inh @ 10 μM (rabbit)” value of the first is higher: 75% for the first, 30% for the second.

Going from `CN(C)CCn1c2c(c3ccccc31)CCN(C(=O)c1ccc(-c3cccc([N+](=O)[O-])c3)o1)C2c1ccc2c(c1)OCO2` (stereo not shown) [Cmpd 38] to `CN(C)c1ccc(C2c3[nH]c4ccccc4c3CCN2C(=O)c2ccc(-c3cccc([N+](=O)[O-])c3)o2)cc1` (stereo not shown) [Cmpd 83], the “% Inh @ 10 μM (rabbit)” value falls from 91% to 27%.

First: O=C(c1ccc(-c2cccc([N+](=O)[O-])c2)o1)N1CCc2c([nH]c3ccccc23)C1c1ccncc1 (stereo not shown) [Cmpd 86]
Second: O=C(c1cnn(-c2ccccc2)c1C(F)(F)F)N1CCc2c([nH]c3ccccc23)C1c1ccc(Cl)c(C(F)(F)F)c1 (stereo not shown) [Cmpd 127]
The “% Inh @ 10 μM (rabbit)” value of the first is higher: 69% for the first, 13% for the second.

For `c1ccc2c3c([nH]c2c1)C(c1ccc2c(c1)CCO2)N(c1ncc(-c2ccc(OCCN4CCOCC4)cc2)cn1)CC3` (stereo not shown) [Cmpd 180], the “% INH @ 10 μM (rabbit)” value was 40%.

Same assay, conditions: 10 μM test compound; rabbit PDEV; 10 µM

With `COc1ccc(-c2cnc(N3CC(O)c4c([nH]c5ccccc45)C3c3ccc4c(c3)OCO4)nc2)cc1` (stereo not shown) [Cmpd 164] the “% INH @ 10 μM (rabbit)” value was 82%.

In the case of `O=C(c1ccc(-c2ccc(Cl)cc2[N+](=O)[O-])o1)N1CCc2c([nH]c3ccccc23)C1c1ccc2c(c1)OCO2` (stereo not shown) [Cmpd 47], the “% Inh @ 10 μM (rabbit)” value is reported as 83%.

Same assay, conditions: 10 μM test compound; rabbit PDEV; read-out: % INH @ 10 μM (rabbit)

First: COc1ccc(-c2cnc(N3CCc4c(n(CCN5CCCC5)c5ccccc45)C3c3ccc4c(c3)OCO4)nc2)cc1 (stereo not shown) [Cmpd 148]
Second: CS(=O)(=O)c1ccc(-c2cnc(N3CCc4c(n(CCN5CCCC5)c5ccccc45)C3c3ccc4c(c3)OCO4)nc2)c([N+](=O)[O-])c1 (stereo not shown) [Cmpd 154]
The inhibition at 10 µM of the first is lower: 66% for the first, 97% for the second.

First: c1ccc2oc(N3CCc4c([nH]c5ccccc45)C3c3ccc4c(c3)OCO4)nc2c1 (stereo not shown) [Cmpd 151]
Second: CN(C)CCn1c2c(c3ccccc31)CCN(C(=O)c1ccc(-c3ccccc3)o1)C2c1ccc2c(c1)OCO2 (stereo not shown) [Cmpd 152]
The inhibition at 10 µM of the first is higher: 95% for the first, 80% for the second.
